These are literature values, as cited in PMC4261083, “An atypical residue in the pore of Varroa destructor GABA-activated RDL receptors affects picrotoxin block and thymol modulation” (Insect Biochemistry and Molecular Biology, 2014).

In this series the test system is Tetranychus RDL receptors. Details: method as in Asahi et al., 2014. Conditions: expressed in Xenopus oocytes, ref Asahi et al., 2014, cited from earlier work.

With `N#Cc1nn(-c2c(Cl)cc(C(F)(F)F)cc2Cl)c(N)c1[S+]([O-])C(F)(F)F` (centres unmarked) [fipronil], the “Sensitivity of Tetranychus RDL receptors to fipronil” value is listed as “resistant”.

For `Cc1cc(C2=NOC(c3cc(Cl)cc(Cl)c3)(C(F)(F)F)C2)ccc1C(=O)NCC(=O)NCC(F)(F)F` (centres unmarked) [fluralaner], for the setting “read-out: IC50 for block of Tetranychus RDL receptors”, the half-inhibitory concentration (IC50) was about 10 nM.
